According to patent US20250129021A1, “SMALL MOLECULE PROTEIN SYNTHESIS MODULATORS” (Interdict Bio, Inc., priority 2023, published 2025):

Columns and labels:
Assay type in all cases: biochemical
[1] = system: MCL-1; test: In vitro transcription-translation (IVTT) assay, MCL-1 reporter; conditions: IVTT, HeLa S3 lysate, 2 hrs at 30° C.; read-out: MCL1 IC50
Outline: (§1)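 Reporter: mCherry, P2A, then 3×FLAG-target peptide-sfGFP fusion, IRES-initiated; HeLa S3 lysate IVTT; cpd dilutions 30 μM−0.1 μM half-log in 100% DMSO (dilution-plate conc); DNA added last; 2 h, 30° C; PBS quench.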

[2] = system: JAK1; test: In vitro transcription-translation (IVTT) assay, JAK1 reporter; conditions: HeLa S3 lysate, 2 hrs at 30° C.
Procedure: (§2) Each preparation takes 8 cell pellets (4 ml packed volume each, approximately 1.0×10^9 cells per pellet). Thaw cell pellets from −80° C. on ice for 90 mins. Lay pellets horizontally on top of the ice and rotate every 30 mins to ensure even thawing. Once thawed, add 4 mL of cold lysis buffer to each pellet, and using a serological pipet, gently pipet up and down to break up clumps. Incubate resuspended cells in ice for an additional 30 mins (plunged into ice). During 30 min incubation, rinse and RNase-zap (Ambion) glass dounces (use loose pestle “A”), gently dry and place on ice until needed. Prepare RNase-free Eppendorf tubes for spinning and for batch storage. […]
(§3) In vitro transcription-translation assay setup: Each assay includes a master mix containing lysate and shared components, a 96-well plate containing compound titrations for testing, a 96-well DNA plate with reporter constructs to be tested, 96-well skirted PCR plates, and 96-well flat-bottom, black, fluorescent assay plates. […] After 2 hrs, quench the assay using 45 μL of PBS, and transfer 50 μL to a flat-bottom black microplate Quantify the sfGFP and mCherry signals from each well on each plate, taking 3 reads of each plate, and perform data analysis below.
(§4) In vitro transcription-translation assay data analysis: Each plate is read three times in channels for both sfGFP and mCherry signals. […]

[3] = system: CCNTB1; test: In vitro transcription-translation (IVTT) assay, CCNTB1 reporter; conditions: HeLa S3 lysate, 2 hrs at 30° C.
Outline: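 IC50 fitted from the sfGFP/mCherry fluorescence ratio, normalized to no-drug control after no-DNA background subtraction. Reactions ran 2 h at 30° C in HeLa S3 cell lysate with reporter plasmid DNA and half-log compound titrations (30 μM−0.1 μM, in DMSO).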

[4] = system: CCND1; test: In vitro transcription-translation (IVTT) assay, CCND1 reporter; conditions: IVTT, HeLa S3 lysate, 2 hrs at 30° C.
Outline: as §1

[5] = system: STING; test: In vitro transcription-translation (IVTT) assay, STING reporter; conditions: HeLa S3 lysate, 2 hrs at 30° C.
Procedure: as §2, §3, §4

[6] = system: cGAS; test: In vitro transcription-translation (IVTT) assay, cGAS reporter; conditions: HeLa S3 lysate, 2 hrs at 30° C.
Procedure: as §2, §3, §4

[7] = system: MYC; test: In vitro transcription-translation (IVTT) assay, MYC reporter; conditions: IVTT assay, HeLa S3 lysate, MYC reporter, normalized sfGFP/mCherry ratio; half-log dilutions 30 μM-0.1 μM, 2 hrs at 30° C.
Outline: as §1

[8] = system: NFKB1; test: In vitro transcription-translation (IVTT) assay, NFKB1 reporter; conditions: HeLa S3 lysate, 2 hrs at 30° C.
Procedure: as §2, §3, §4

Measured: IC50

O=C(NCc1cccc(F)c1)O[C@@H]1[C@@H](O)CN[C@@H]1Cc1ccc(-c2cnco2)cc1 [V190545, (2R,3S,4S)-4-hydroxy-2-{[4-(1,3-oxazol-5-yl)phenyl]methyl}pyrrolidin-3-yl N-[(3-fluorophenyl)methyl]carbamate]
not listed: [8]
< 10 µM: all other assays above

O=C(NCc1ccccc1)O[C@@H]1[C@@H](O)CN[C@@H]1Cc1ccc(-c2ccc3c(c2)CNC3)cc1 [V188347, (2R,3S,4S)-2-{[4-(2,3-dihydro-1H-isoindol-5-yl)phenyl]methyl}-4-hydroxypyrrolidin-3-yl N-benzylcarbamate]
< 10 µM: all assays above
